Measured values from ChEMBL document CHEMBL3045613, “Effects of sublethal glyphosate rates on fresh market tomato” (Crop Prot, 2007).

Columns and labels:
Assay type in all cases: organism-based
Parameters in all cases: scale not given: the % may be the effect or the level left
Solanum lycopersicum [1] = test: Phytotoxicity against Solanum lycopersicum (tomato) plant assessed as decrease in plant height at 150 mg/L applied 1 days prior to transplantation for 10 secs measured after 4 weeks relative to untreated-control; conditions: in vivo, other
Solanum lycopersicum [2] = test: Phytotoxicity against Solanum lycopersicum (tomato) plant assessed as decrease in plant height at 200 mg/L applied 1 days prior to transplantation for 10 secs measured after 4 weeks relative to untreated-control; conditions: in vivo
Solanum lycopersicum [3] = test: Phytotoxicity against Solanum lycopersicum (tomato) plant assessed as decrease in plant height at 100 mg/L applied 1 days prior to transplantation for 10 secs measured after 4 weeks relative to untreated-control; conditions: in vivo
Solanum lycopersicum [4] = test: Phytotoxicity against Solanum lycopersicum (tomato) plant assessed as decrease in plant height at 25 mg/L applied 1 days prior to transplantation for 10 secs measured after 4 weeks relative to untreated-control; conditions: in vivo
Solanum lycopersicum [5] = test: Phytotoxicity against Solanum lycopersicum (tomato) plant assessed as decrease in vigour at 150 to 200 mg/L applied 1 days prior to transplantation for 10 secs measured after 4 weeks relative to untreated-control; conditions: in vivo
Solanum lycopersicum [6] = test: Phytotoxicity against Solanum lycopersicum (tomato) plant assessed as decrease in vigour at 100 mg/L applied 1 days prior to transplantation for 10 secs measured after 4 weeks relative to untreated-control; conditions: in vivo
Solanum lycopersicum [7] = test: Phytotoxicity against Solanum lycopersicum (tomato) plant assessed as decrease in vigour at 50 mg/L applied 1 days prior to transplantation for 10 secs measured after 4 weeks relative to untreated-control; conditions: in vivo
Solanum lycopersicum [8] = test: Phytotoxicity against Solanum lycopersicum (tomato) plant assessed as decrease in vigour at 25 mg/L applied 1 days prior to transplantation for 10 secs measured after 4 weeks relative to untreated-control; conditions: in vivo
Solanum lycopersicum [9] = test: Phytotoxicity against Solanum lycopersicum (tomato) plant assessed as decrease in vigour at 100 mg/L applied 1 days prior to transplantation for 10 secs measured after 2 weeks relative to untreated-control; conditions: in vivo
Solanum lycopersicum [10] = test: Phytotoxicity against Solanum lycopersicum (tomato) plant assessed as decrease in vigour at 25 mg/L applied 1 days prior to transplantation for 10 secs measured after 2 weeks relative to untreated-control; conditions: in vivo
Solanum lycopersicum [11] = test: Phytotoxicity against Solanum lycopersicum (tomato) plant assessed as decrease in marketable yeild at 150 mg/L applied 1 days prior to transplantation for 10 secs measured after 4 weeks relative to untreated-control; conditions: in vivo
Solanum lycopersicum [12] = test: Phytotoxicity against Solanum lycopersicum (tomato) plant assessed as decrease in marketable yeild at 25 mg/L applied 1 days prior to transplantation for 10 secs measured after 4 weeks relative to untreated-control; conditions: in vivo

Which Activity (Solanum lycopersicum [1]) does the source give for `O=C(O)CNCP(=O)(O)O` [GLYPHOSATE] here?
The Activity was 72%.

What about the Activity (Solanum lycopersicum [2]) of the same molecule?
The Activity was 75%.

What about the Activity (Solanum lycopersicum [3]) of the same molecule?
Its Activity is 65%.

What about the Activity (Solanum lycopersicum [4]) of the same molecule?
The Activity was 29%.

What about the Activity (Solanum lycopersicum [5]) of the same molecule?
Its Activity is “<= 15%”.

What about the Activity (Solanum lycopersicum [6]) of the same molecule?
Its Activity is 58%.

What about the Activity (Solanum lycopersicum [7]) of the same molecule?
Its Activity is 36%.

What about the Activity (Solanum lycopersicum [8]) of the same molecule?
Its Activity is 36%.

And the Activity (Solanum lycopersicum [9])?
The Activity was “<= 50%”.

What about the Activity (Solanum lycopersicum [10]) of the same molecule?
The Activity was 78%.

And the Activity (Solanum lycopersicum [11])?
Its Activity is over 98%.

And the Activity (Solanum lycopersicum [12])?
Its Activity is 41%.
